# Assay results taken from US3965109A, “Certain aryl amino pyridines” (priority 1971, dated 1976).
# How the values were obtained:
# Type in all cases: in vivo
# [1] = system: Aedes aegypti (mosquito adults); experiment: Pest toxicity test; conditions: 0.01% by weight; plywood; 1 day
# [2] = system: Megoura viceae; experiment: Pest toxicity test; conditions: 0.1% by weight; broad bean; 2 days
# [3] = system: Tetranychus telarius (red spider mites, eggs); experiment: Pest toxicity test; conditions: 0.1% by weight; French bean; 3 days
# [4] = system: Tetranychus telarius (red spider mites, adults); experiment: Pest toxicity test; conditions: 0.1% by weight; French bean; 3 days
# [5] = system: Musca domestica (houseflies); experiment: Pest toxicity test, contact test; conditions: 0.1% by weight; milk/sugar; 2 days; flies sprayed directly
# [6] = system: Phaedon cochleariae (mustard beetles); experiment: Pest toxicity test
# [7] = system: Pieris brassicae (cabbage white caterpillars); experiment: Pest toxicity test; conditions: 0.1% by weight, 2 days
# [8] = system: Plutella maculipennis (diamond back moth larvae); experiment: Pest toxicity test
# [9] = system: Aphis fabae; experiment: Pest toxicity test; conditions: 0.1% by weight; broad bean; 2 days
# [10] = system: Aedes aegypti (mosquito larvae); experiment: Pest toxicity test; conditions: 0.01% by weight; water; 1 day
# [11] = system: Phytophthora infestans (tomato); conditions: 100 ppm spray and drench; 3 days
# [12] = system: Puccinia recondita (wheat); experiment: Fungicidal test against foliar disease A (foliage spray plus soil drench); conditions: 100 ppm spray and drench; 10 days
# [13] = system: Plasmopara viticola (vine); experiment: Fungicidal test against foliar disease C (foliage spray plus soil drench); conditions: 100 ppm spray and drench; 10 days
# [14] = system: Piricularia oryzae (rice); conditions: 100 ppm spray and drench; 7 days
# [15] = system: Uncinula necator (vine); experiment: Fungicidal test against foliar disease D (foliage spray plus soil drench); conditions: 100 ppm spray and drench; 10 days
# [16] = system: Tomato; experiment: Herbicidal test, pre- and post-emergence
# [17] = system: Pea; experiment: Further herbicidal test, various rates; conditions: 5 lb/acre; scale 0 to 5 (complete kill)
# [18] = system: Kale; experiment: Further herbicidal test, various rates; conditions: 5 lb/acre; scale 0 to 5 (complete kill)
# [19] = system: Wheat; experiment: Herbicidal test, pre- and post-emergence
# [20] = system: Carrot; experiment: Further herbicidal test, various rates; conditions: 5 lb/acre; scale 0 to 5 (complete kill)
# [21] = system: Sugar beet; experiment: Further herbicidal test, various rates; conditions: 5 lb/acre; scale 0 to 5 (complete kill)
# [22] = system: Maize; experiment: Herbicidal test, pre- and post-emergence
# [23] = system: Barley; experiment: Further herbicidal test, various rates; conditions: 5 lb/acre; scale 0 to 5 (complete kill)
# [24] = system: Lettuce; experiment: Herbicidal test, pre- and post-emergence
# [25] = system: Oat; experiment: Further herbicidal test, various rates; conditions: 5 lb/acre; scale 0 to 5 (complete kill)
# [26] = system: Onion; experiment: Further herbicidal test, various rates; conditions: 5 lb/acre; scale 0 to 5 (complete kill)
# [27] = system: Rice; experiment: Further herbicidal test, various rates; conditions: 5 lb/acre; scale 0 to 5 (complete kill)
# [28] = 0.1% by weight, mustard/paper, 2 days
# [29] = 10 lb/acre (11.2 kg/ha), scale 0 (no effect) to 3 (complete kill)
# [30] = 10 kg/ha, scale 0 to 3 (complete kill)
compound,measurement,setting,value
CNC(=O)N(c1c(F)c(F)c(C#N)c(F)c1F)c1c(Cl)c(F)nc(OC)c1Cl [Compound 46],Mortality grading (kill),[1],0 (O represents less than 30% kill)
same,Mortality grading (kill),[2],0 (O represents less than 30% kill)
same,Mortality grading (kill),[3],0 (O represents less than 30% kill)
same,Mortality grading (kill),[4],2 (2 represents 60 - 90% kill)
same,"Mortality grading (kill), contact test",[5],0 (O represents less than 30% kill)
same,Mortality grading (kill),[6]; [28],0 (O represents less than 30% kill)
same,Mortality grading (kill),[7],0 (O represents less than 30% kill)
same,Mortality grading (kill),[8]; [28],0 (O represents less than 30% kill)
same,Mortality grading (kill),[9],0 (O represents less than 30% kill)
same,Mortality grading (kill),[10],3 (3 represents over 90% kill)
"Fc1nc(F)c(Cl)c(Nc2cccc(C(F)(F)F)c2)c1Cl [Compound 17, 3,5-Dichloro-2,6-difluoro-4(3-trifluoromethylanilino)pyridine]","Amount of disease grading, disease B",[11],1 (26 to 60)
same,"Amount of disease grading, disease A",[12],0 (61 to 100)
same,"Amount of disease grading, disease C",[13],3 (0 to 5)
same,"Amount of disease grading, disease E",[14],0 (61 to 100)
same,"Amount of disease grading, disease D",[15],0 (61 to 100)
"Fc1nc(F)c(Cl)c(Nc2c(F)c(F)c(F)c(F)c2F)c1Cl [Compound 10, 3,5-Dichloro-2,6-difluoro-4(pentafluoroanilino)pyridine]","Damage to plants, post-emergence",[16]; [29],3
same,"Damage to plants, pre-emergence",[16]; [29],1
same,"Damage to plants, post-emergence",[17],0
same,"Damage to plants, pre-emergence",[17],3
same,Mortality grading (kill),[1],2 (2 represents 60 - 90% kill)
same,"Damage to plants, post-emergence",[18],3
same,"Damage to plants, pre-emergence",[18],1
same,"Damage to plants, post-emergence",[19]; [29],1
same,"Damage to plants, pre-emergence",[19]; [29],0
same,"Damage to plants, post-emergence",[20],2
same,"Damage to plants, pre-emergence",[20],1
same,"Damage to plants, post-emergence",[21],3
same,"Damage to plants, pre-emergence",[21],0
same,Mortality grading (kill),[2],0 (O represents less than 30% kill)
same,"Damage to plants, post-emergence",[22]; [29],0
same,"Damage to plants, pre-emergence",[22]; [29],0
same,"Damage to plants, post-emergence",[23],0
same,"Damage to plants, pre-emergence",[23],3
same,"Damage to plants, post-emergence",[24]; [29],3
same,"Damage to plants, pre-emergence",[24]; [29],2
same,Mortality grading (kill),[4],3 (3 represents over 90% kill)
same,"Mortality grading (kill), contact test",[5],0 (O represents less than 30% kill)
same,Mortality grading (kill),[6]; in vivo,0 (key: O represents less than 30% kill; 1 represents 30 - 49% kill; 2 represents 60 - 90% kill; 3 represents over 90% kill; C indicates a chemosterilant effect.; A indicates an antifeeding effect.)
same,Mortality grading (kill),[7],0 (O represents less than 30% kill)
same,"Damage to plants, post-emergence",[25],0
same,"Damage to plants, pre-emergence",[25],0
same,"Damage to plants, post-emergence",[26],2
same,"Damage to plants, pre-emergence",[26],0
same,Mortality grading (kill),[8]; in vivo,0 (key: O represents less than 30% kill; 1 represents 30 - 49% kill; 2 represents 60 - 90% kill; 3 represents over 90% kill; C indicates a chemosterilant effect.; A indicates an antifeeding effect.)
same,"Damage to plants, post-emergence",[27],0
same,Mortality grading (kill),[9],0 (O represents less than 30% kill)
same,Mortality grading (kill),[10],2 (2 represents 60 - 90% kill)
"O=[N+]([O-])c1ccc(Nc2c(Cl)c(F)nc(F)c2Cl)cc1C(F)(F)F [Compound 36, 3,5-Dichloro-2,6-difluoro-4(4-nitro-3-trifluoromethylanilino) pyridine]","Amount of disease grading, disease B (Table 4)",[11],2 (6 to 25)
same,"Amount of disease grading, disease A (Table 4)",[12],2 (6 to 25)
same,"Amount of disease grading, disease C (Table 4)",[13],3 (0 to 5)
same,"Amount of disease grading, disease E (Table 4)",[14],1 (26 to 60)
same,"Amount of disease grading, disease D (Table 4)",[15],0 (61 to 100)
"O=[N+]([O-])c1ccc(Nc2c(F)c(F)nc(F)c2Cl)c([N+](=O)[O-])c1 [Compound 38, 3-Chloro-4(2,4-dinitroanilino)-2,5,6-trifluoropyridine]","Damage to plants, post-emergence",[16]; [30],3
same,"Damage to plants, pre-emergence",[16]; [30],3
same,Mortality grading (kill),[1],0 (O represents less than 30% kill)
same,"Damage to plants, post-emergence",[19]; [30],0
same,"Damage to plants, pre-emergence",[19]; [30],2
same,"Amount of disease grading, disease A (Table 4)",[12],1 (26 to 60)
same,"Amount of disease grading, disease C (Table 4)",[13],3 (0 to 5)
same,Mortality grading (kill),[2],0 (O represents less than 30% kill)
same,"Damage to plants, post-emergence",[22]; [30],0
same,"Damage to plants, pre-emergence",[22]; [30],0
same,Mortality grading (kill),[3],3 (3 represents over 90% kill)
same,"Damage to plants, post-emergence",[24]; [30],3
same,"Damage to plants, pre-emergence",[24]; [30],3
same,Mortality grading (kill),[4],3 (3 represents over 90% kill)
same,"Mortality grading (kill), contact test",[5],0 (O represents less than 30% kill)
same,Mortality grading (kill),[6]; in vivo,0 (key: O represents less than 30% kill; 1 represents 30 - 49% kill; 2 represents 60 - 90% kill; 3 represents over 90% kill; C indicates a chemosterilant effect.; A indicates an antifeeding effect.)
same,Mortality grading (kill),[7],3 (3 represents over 90% kill)
same,"Amount of disease grading, disease E (Table 4)",[14],2 (6 to 25)
same,Mortality grading (kill),[8]; in vivo,0 (key: O represents less than 30% kill; 1 represents 30 - 49% kill; 2 represents 60 - 90% kill; 3 represents over 90% kill; C indicates a chemosterilant effect.; A indicates an antifeeding effect.)
same,Mortality grading (kill),[9],0 (O represents less than 30% kill)
same,"Amount of disease grading, disease D (Table 4)",[15],3 (0 to 5)
same,Mortality grading (kill),[10],3 (3 represents over 90% kill)
"CN(C)S(=O)(=O)c1cc(Cl)c(Nc2c(Cl)c(F)nc(F)c2Cl)cc1Cl [Compound 31, 3,5-Dichlor-2,6-difluoro-4(2,5-dichlor-4-N,N-dimethylsulphamoylanilino)pyridine]","Amount of disease grading, disease B (Table 4)",[11],0 (61 to 100)
same,"Amount of disease grading, disease A (Table 4)",[12],2 (6 to 25)
same,"Amount of disease grading, disease C (Table 4)",[13],3 (0 to 5)
same,"Amount of disease grading, disease E (Table 4)",[14],0 (61 to 100)
same,"Amount of disease grading, disease D (Table 4)",[15],3 (0 to 5)
"Fc1nc(F)c(Cl)c(Nc2ccccc2)c1Cl [Compound 2, 4-Anilino-3,5-dichloro-2,6-difluoropyridine]",Mortality grading (kill),[1],0 (O represents less than 30% kill)
same,Mortality grading (kill),[2],0 (O represents less than 30% kill)
same,Mortality grading (kill),[3],0 (O represents less than 30% kill)
same,Mortality grading (kill),[4],3 (3 represents over 90% kill)
same,"Mortality grading (kill), contact test",[5],0 (O represents less than 30% kill)
same,Mortality grading (kill),[6]; [28],0 (O represents less than 30% kill)
same,Mortality grading (kill),[7],0 (O represents less than 30% kill)
same,Mortality grading (kill),[8]; [28],0 (O represents less than 30% kill)
same,Mortality grading (kill),[9],0 (O represents less than 30% kill)
same,Mortality grading (kill),[10],0 (O represents less than 30% kill)
"O=[N+]([O-])c1cc([N+](=O)[O-])c(Nc2c(F)c(F)nc(F)c2F)cc1F [Compound 39, 4(2,4-Dinitro-5-fluoranilino)tetrafluoropyridine]","Amount of disease grading, disease B (Table 4)",[11],2 (6 to 25)
same,"Amount of disease grading, disease A (Table 4)",[12],1 (26 to 60)
same,"Amount of disease grading, disease C (Table 4)",[13],3 (0 to 5)
same,"Amount of disease grading, disease E (Table 4)",[14],1 (26 to 60)
same,"Amount of disease grading, disease D (Table 4)",[15],0 (61 to 100)
